Consider one compound from paper PMC9750872, “Ras-mutant cancers are sensitive to small molecule inhibition of V-type ATPases in mice” (Nature biotechnology, 2022).

Data set [1] concerns NSCLC A549 (KRASG12S) xenografts. As to the kind of experiment: A549 lung cancer xenograft. The data set is classed as in vivo. As to conditions: 10 mg/kg twice daily i.p. As for the experimental part:
Finally, to test whether 249C could inhibit autophagy and attenuate the growth of mutant KRAS-dependent cancers as a single agent in vivo, we evaluated 249C in a mouse xenograft model of lung cancer (NSCLC, A549). Briefly, we injected mutant KRAS A549 (G12S) cells into the flanks of athymic mice to establish xenografts, randomly assigned mice to vehicle control (n = 7) or 249C-recipient groups (n = 7, 10 mg/kg) with twice daily i.p. injections, and recorded tumor volume and body weight over time. […] We subsequently sacrificed all mice and excised their tumors for further investigation.
(§1) 5 × 10^6 A549 cells were subcutaneously injected into the lower left flank of 6–8-week old athymic nude female mice (Charles River strain # 088, homozygous NU/NU). To assess establishment of tumors, mice were examined 5 days post-inoculation and were randomly segregated into two treatment groups [vehicle control, 10 mg/kg 249C IP, n = 7 per group] and were treated twice daily with the drug in NPM or vehicle control (5% weight aqueous solution of carboxymethyl cellulose). Tumor volumes were calculated using the formula (L × W × H)/2 with recorded caliper measurements. Survival curves and statistical analyses were performed using Excel. Animals were maintained on a standard chow diet; 12:12 dark/light cycle and in group housing in hepa-filtered cages. All animal procedures were performed under IACUC approved protocols and guidelines. Animals from both groups were weighed every 3 days. Plasma concentration was measured from blood collected using standard and established protocols.

Data set [2] relates to MEFs KRAS G12D. Nature of the data set: Cell proliferation of Ras-less MEFs expressing human KRAS/BRAF. Particulars: Mus musculus.
Protocol: (§2) Logarithmically growing cells were plated in antibiotic-free medium supplemented with 2% fetal bovine serum at a density of 5,000 cells per well. The next day, cells were treated in triplicates with increasing doses of in-house small molecule inhibitor drugs and a DMSO vehicle control for 3 days and subsequently assessed for cell viability by measurement of ATP with CellTiter-Glo Luminescent Cell Viability Assay (Promega). Signal intensity was read on a Glomax™ 96 Microplate Luminometer (Promega) with GLOMAX software (version 1.9.3) and percent cell survival was calculated based on the reading of vehicle control cells set as 100% using Excel (2012) and GraphPad Prism (version 6)Each compound was tested a minimum of 2 times with n = 3. All cell proliferation assays (cancer cell lines or MEFs) were done in a similar way.
Data set [3] is described as follows: Plasma concentration in mice. The data set is classed as in vivo. As to conditions: female, athymic nude (NU/NU, Charles River strain # 088), mouse, intraperitoneal, 10 mg/kg, after 4 hours, read-out: maximum concentration (Cmax) in blood (or plasma). Here is the method:
as §1

Data set [4] deals with MEFs BRAFV600E. As to the kind of experiment: Cell proliferation of Ras-less MEFs expressing human KRAS/BRAF. Particulars: Mus musculus.
Protocol: Cell proliferation assays of stable cell lines treated with V-ATPase inhibitors 249C and BafA1, HCQ analog (DC661), KRASG12C inhibitor (AMG510) and autophagy inducer (CMA). For each bar, n = 3. Representative of 3 biological replicates (mean ± SD). Two-sided t-test with no adjustments for multiple comparisons.
as §2
For data set [5], the target named is T1, entire mammalian V-ATPase complex (Sus scrofa, UniProt Q9TVC1).
T1 construct: the entire V-ATPase complex (800 kDa) was purified as described previously from porcine kidneys; from tissue; host or cells: porcine kidney
As to the kind of experiment: Bio-layer interferometry (BLI). The class given is binding, porcine. As to conditions: biotinylated-249C on streptavidin sensors. From the text:
Figure 4. […] (A) Model of the reversible assembly of V-ATPase. Cytosolic V1 subunits are depicted in blue and membrane Vo subunits in purple. Upon V-ATPase assembly, ATP is hydrolyzed to ADP accompanied by proton (H^+) pumping and luminal acidification (decrease in pH) (Created with BioRender). […] The amount of subunit B2 present in the membrane fraction indicates the amount of assembled V-ATPase. A representative Western blot is presented. […] Cells were mechanically lysed, and a fraction containing FITC-Dextran-loaded lysosomes was isolated by sedimentation centrifugation. Fluorescence was measured over time to assess pH-dependent quenching following addition of 1 mM magnesium-ATP (predetermined). […] Representative of 5 individual experiments with n = 3 for each is presented (mean ± SD) (D) Mammalian V-ATPase activity measured in the absence and presence of 1 μM 249C and 1 μM BafA1. Data shown are mean ± SD; n = 3. Bio-layer inferometry (BLI) of (E) the entire mammalian V-ATPase complex (association protein concentrations: 30, 60, 120, 240 nM) and (F) the individual human H subunit (ATP6V1H) (association protein concentrations: 16,800 and 21,000 nM) against biotinylated-249C loaded onto streptavidin sensor tips. A reference sensor was subtracted from the signal to blank the system. The ForteBio Octet® Software on the BLI system was used to calculate Kd s. […]
Background: BLI is a label-free optical method that tracks binding on a fibre tip over time.

The target of data set [6] is hERG (Homo sapiens, UniProt Q12809). Nature of the data set: hERG fluorescence polarization assay. As to conditions: human.
Data set [7] relates to MEFs KRAS G12C. Nature of the data set: Cell proliferation of Ras-less MEFs expressing human KRAS/BRAF. Particulars: Mus musculus.
Protocol: as §2
In data set [8] the test system is MelJuso (HRASG13D and NRASQ61L). As to the kind of experiment: Cell viability screen, CellTiter-Glo, 72 h. The class given is cell-based, human. As to conditions: ATP content/viability. Here is the method:
Figure 1: Optimization of Potency and Drug Properties of Small Molecule Inhibitors of Ras- and Raf-mutant Cells using Viability Screens. (A) Cell viability screen of ~300 small molecules in A549 (KRASG12S), LOX IMVI (BRAFV600E), and MelJuso (HRASG13D and NRASQ61L). Cells were treated with vehicle DMSO or increasing concentrations of small molecules in triplicate for 72 h and ATP content/viability was measured using CellTiter-Glo Luminescent Cell Viability Assay. The results shown for all cell viability figures are representative of at least two independent experiments. […] (C) Evolution of the Structure Activity Relationship (SAR) and IC50s of the first (68) and last (249C | lead due to drug-like properties) compounds in the screen. (D) 249C sensitivity for a panel of 53 cancer cell lines (including lung, pancreatic, breast, ovarian, hematological/liver, prostate, colorectal cancers, glioma and melanoma). […] (F) Quantitative whole proteome analysis of the effects of small molecule treatment by mass spectrometry. A549 cells were treated with DMSO or 68 (30 μM), 226C (1μM) or 249C (1μM) for 48 h prior to analysis of proteomes with TMT labeling followed by quantification relative to the DMSO control. […]

hERG, sequence (Q12809 whole entry): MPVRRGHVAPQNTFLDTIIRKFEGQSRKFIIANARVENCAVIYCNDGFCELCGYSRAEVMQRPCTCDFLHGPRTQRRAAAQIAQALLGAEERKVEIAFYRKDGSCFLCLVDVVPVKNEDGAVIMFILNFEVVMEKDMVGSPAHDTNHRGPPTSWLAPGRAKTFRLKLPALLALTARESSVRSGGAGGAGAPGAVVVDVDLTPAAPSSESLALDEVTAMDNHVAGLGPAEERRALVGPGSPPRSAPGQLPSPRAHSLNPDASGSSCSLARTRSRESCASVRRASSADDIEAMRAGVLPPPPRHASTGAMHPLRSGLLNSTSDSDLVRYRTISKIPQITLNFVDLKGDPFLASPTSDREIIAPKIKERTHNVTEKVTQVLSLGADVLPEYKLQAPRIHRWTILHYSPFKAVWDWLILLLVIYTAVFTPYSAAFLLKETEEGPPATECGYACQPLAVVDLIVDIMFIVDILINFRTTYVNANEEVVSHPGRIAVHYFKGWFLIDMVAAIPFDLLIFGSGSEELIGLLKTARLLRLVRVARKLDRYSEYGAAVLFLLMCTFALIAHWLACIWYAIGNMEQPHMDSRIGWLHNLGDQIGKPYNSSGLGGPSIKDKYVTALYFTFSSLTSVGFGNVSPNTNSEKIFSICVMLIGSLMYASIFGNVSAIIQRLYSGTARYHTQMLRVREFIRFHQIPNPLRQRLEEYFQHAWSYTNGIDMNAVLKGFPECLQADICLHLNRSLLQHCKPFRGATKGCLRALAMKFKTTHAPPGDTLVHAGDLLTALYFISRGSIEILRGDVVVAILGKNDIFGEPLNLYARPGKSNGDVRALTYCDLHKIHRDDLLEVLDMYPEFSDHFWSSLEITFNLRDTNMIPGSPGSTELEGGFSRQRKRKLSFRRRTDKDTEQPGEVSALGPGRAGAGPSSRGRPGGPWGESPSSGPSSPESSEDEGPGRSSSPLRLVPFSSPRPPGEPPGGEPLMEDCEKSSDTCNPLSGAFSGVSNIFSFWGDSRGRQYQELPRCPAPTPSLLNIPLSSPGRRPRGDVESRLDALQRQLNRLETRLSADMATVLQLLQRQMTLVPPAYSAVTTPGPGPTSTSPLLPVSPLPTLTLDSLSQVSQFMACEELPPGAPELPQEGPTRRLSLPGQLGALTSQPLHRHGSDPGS
T1 sequence (Q9TVC1 whole entry): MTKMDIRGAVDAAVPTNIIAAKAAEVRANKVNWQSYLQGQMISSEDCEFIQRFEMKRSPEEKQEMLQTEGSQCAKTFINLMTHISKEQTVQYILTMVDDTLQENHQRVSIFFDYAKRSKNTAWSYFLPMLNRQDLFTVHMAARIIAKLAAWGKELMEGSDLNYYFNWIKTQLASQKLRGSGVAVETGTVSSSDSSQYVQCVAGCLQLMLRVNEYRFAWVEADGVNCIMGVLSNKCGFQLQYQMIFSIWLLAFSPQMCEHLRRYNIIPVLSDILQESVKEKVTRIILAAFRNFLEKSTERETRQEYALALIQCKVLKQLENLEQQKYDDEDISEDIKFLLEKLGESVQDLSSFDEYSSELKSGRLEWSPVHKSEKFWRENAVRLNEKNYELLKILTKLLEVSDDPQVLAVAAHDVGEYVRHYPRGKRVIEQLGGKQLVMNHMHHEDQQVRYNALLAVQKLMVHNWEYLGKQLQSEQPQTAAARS
T1 sequence (Q29048 whole entry partner): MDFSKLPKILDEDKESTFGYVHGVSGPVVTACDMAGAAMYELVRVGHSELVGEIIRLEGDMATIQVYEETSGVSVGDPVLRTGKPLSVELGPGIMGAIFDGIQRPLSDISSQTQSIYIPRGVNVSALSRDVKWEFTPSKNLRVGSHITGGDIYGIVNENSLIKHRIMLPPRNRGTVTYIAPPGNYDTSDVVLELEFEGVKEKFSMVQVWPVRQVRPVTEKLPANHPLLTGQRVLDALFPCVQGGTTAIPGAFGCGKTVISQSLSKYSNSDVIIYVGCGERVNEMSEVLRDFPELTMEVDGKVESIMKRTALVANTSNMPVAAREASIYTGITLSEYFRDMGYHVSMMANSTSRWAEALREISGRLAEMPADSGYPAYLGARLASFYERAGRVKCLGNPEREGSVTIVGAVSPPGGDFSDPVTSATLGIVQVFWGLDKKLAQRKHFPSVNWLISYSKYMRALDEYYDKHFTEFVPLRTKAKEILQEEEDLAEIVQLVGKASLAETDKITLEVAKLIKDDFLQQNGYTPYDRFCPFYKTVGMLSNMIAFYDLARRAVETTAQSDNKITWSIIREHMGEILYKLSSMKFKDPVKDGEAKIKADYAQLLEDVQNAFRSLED

On to `CN1CCOC(CNC(=O)C2(C)C(c3ccc(Cl)o3)C(c3ccc(F)cc3F)=NN2c2ccc(F)cc2F)C1` (centres unmarked) [Compound 249C], for which the “tumor volume vs vehicle” value in data set [1] (athymic mice) is reported as “significantly lower”. The “tumor mass vs vehicle” value in data set [1] (end point) is listed as “lower”. For the same compound, the “tissue weight of treated mice vs vehicle” value in data set [1] (mice bearing A549 xenografts) is reported as “No significant difference in tissue weight”. Also, the IC50 – broadly, the concentration needed to halve the response being measured – amounted to 0.3 µM in data set [2]; 0.11 µM in data set [4]; 0.44 µM in data set [7]; 0.0219 µM in data set [8] (listed as 002-249C); 0.022 µM in data set [8] (Homo sapiens, MEL-JUSO). Moreover, the Cmax in data set [3] came out at 20 µM. Also, the Kd (as a rule, the equilibrium constant for the complex coming apart) in data set [5] was determined as 0.023 µM. The inhibition (usually the share of the control response that was lost under treatment) at 30 µM in data set [6] came to 0%.
